Data on one substance can be found in publication PMC7275090, “Mode of action of teixobactins in cellular membranes” (Nature Communications, 2020).

Bridge positions count the residues as written; N and C are the ends. Square brackets hold non-standard residues; d marks the D form. Ends that are not written are not given here. d(aIle) = CC[C@H](C)[C@@H](N)C(=O)O; dNMeF = CN[C@H](Cc1ccccc1)C(=O)O

The nature of test [1]: ssNMR 15N T1rho relaxation (dynamics of bound teixobactin), mDAP-Lipid II. Particulars: 950 MHz, 60 kHz MAS. The method, then: Relaxation studies: ^1H-detected ^15N T1rho relaxation experiments were carried out at 950 and 700 MHz magnetic field, respectively, using 60 kHz MAS[51]. The ^15N transverse magnetization decay was probed with a ^15N spinlock field of 17.5 kHz. For the bulk, we measured the intensity of the most intense signal at ~8.80 ^1H ppm. T1rho trajectories were fit to single exponentials.
Lipid I or II-doped multi-laminar vesicle preparations: DOPC or DOPG lipids were mixed with Lipid I or II in 1:1 MeOH:CHCl3 at the final Lipid I or II molar ratio (0–4 mol%/mol). The mixtures were dried and the lipid films were hydrated by vortexing with 2 mL of a teixobactin solution in 40 mM phosphate, 25 mM NaCl, pH 7.0.
(§1) SSNMR samples: MLVs were collected by centrifugation (20,000×g) and loaded into ssNMR rotors. For 3.2 mm rotors, we used 800 nmol of antibiotic with unlabelled Lipid II or I, while we used 400 nmol with labelled Lipid II. For 1.3 mm rotors, samples contained 200 nmol of antibiotic for unlabelled Lipid II or I, while we used 100 nmol for labelled Lipid II. For all ssNMR samples, we used 4 mol%/mol Lipid II or I in the MLVs.

The nature of test [2]: Mobility-edited ssNMR: membrane topology of Lipid II-bound teixobactin. Particulars: 2D 1H(1H)13C, 700 MHz, 300 K. The method, then: Topological studies: The mobility-edited 2D ^1H(^1H)^13C experiment[22] was performed at 700 MHz with 16.5 kHz MAS at 300 K temperature using a T2 relaxation filter of 2.5 ms. After dephasing of the rigid signals, magnetization from mobile lipid and water molecules was transferred to the rigid antibiotic with 5 ms ^1H–^1H mixing, and subsequently transferred to ^13C nuclei of [R4L10]-teixobactin with a short (200 μs) cross-polarization step.

Test [3] is described as follows: 31P and 2D 1H31P ssNMR of pyrophosphate binding interface. Particulars: membranes.
Source text: Structural studies: To probe intermolecular contacts between ^13C,^15N-labelled [R4L10]-teixobactin molecules bound to unlabelled (^12C,^14N) Lipid II, we ran 2D ^13C^13C PARIS experiments with magnetization transfer times of 50, 300, 600, and 1000 ms at 950 MHz and 15.5 kHz MAS. To probe interfacial contacts between ^13C,^15N-labelled [R4L10]-teixobactin and ^13C,^15N-labelled Lipid II, we ran 2D ^13C^13C PARIS experiments with magnetization transfer times of 25, 50, 600, and 1000 ms at 950 MHz and 18 kHz MAS. 1D ^31P CP experiments were acquired at 500 MHz with 12 kHz MAS. The 2D ^1H^31P experiment was acquired at 800 MHz magnetic field and 60 kHz MAS using 1.75 ms CP transfer from ^1H to ^31P.
as §1

The nature of test [4]: 2D 15N1H ssNMR of bound teixobactin, mDAP-Lipid II vs Lys-Lipid II. The note with it: DOPC liposomes. It is filed as binding. The method, then:
(§2) 1D, 2D, and 3D ^1H-detected experiments were performed at 60 kHz MAS frequency using magnetic fields of 16.4, 18.8, and 22.2 T (700, 800, and 950 MHz ^1H-frequency) at temperatures of 305 K. All ^1H-detected experiments were dipolar-based. PISSARRO low-power decoupling[47] was used during detection periods. 2D ^13C^13C spin diffusion experiments were performed with PARISxy[48] recoupling at 950 MHz and 15.5, 17, or 18 kHz MAS frequency at 270 K temperature using mixing times of 25–1000 ms. SPINAL64[49] was used in detection periods. The 2D scalar ^13C^13C TOBSY[50] experiment was acquired at 950 MHz with 8 kHz MAS at 295 K temperature with 6 ms ^13C–^13C magnetization transfer time. Chemical shift assignments were performed using standard ^1H-detected 3D CANH and CONH experiments[36],[51] in combination with 2D ^13C^13C PARISxy[48] experiments with different magnetization transfer times (see Supplementary Tables 1 and 2). DNP-enhanced 2D ^13C^13C spin diffusion (20 ms mixing time) ssNMR experiments[52] were carried out using a 263 GHz microwave frequency, 400 MHz ^1H frequency setup (Bruker Biospin) at 100 K temperature and 8.5 kHz MAS.
(§3) Lipid I or II-doped multi-laminar vesicle preparations: DOPC or DOPG lipids were mixed with Lipid I or II in 1:1 MeOH:CHCl3 at the final Lipid I or II molar ratio (0–4 mol%/mol). […]

Test [5] is described as follows: 2D 15N1H ssNMR of bound teixobactin, Lys-Lipid I. Particulars: DOPC liposomes; clear signal changes in the ring motif. It is filed as binding. On the procedure: as §2, §3
The nature of test [6]: Isothermal titration calorimetry: LUVs containing Lys-Lipid II titrated into [R4L10]-teixobactin. It counts as binding. The note with it: neutral DOPC membranes, LUVs 2% (mol/mol) Lys-Lipid II, citrate phosphate buffer pH ~6, 37 °C, 65 μM peptide in cell; read-out: equilibrium dissociation constant Kd. The method, then: Preparation of liposomes: For ITC measurements large unilamellar vesicles (LUVs) containing Lys-Lipid II were prepared by incorporating 2% (mol/mol) of Lys-Lipid II in DOPC from the stock solution. The lipids were dried by nitrogen stream and hydrated with 10 mM HEPES, 150 mM NaCl, pH 7.5 buffer to a lipid-phosphate concentration of ~20 mM. LUVs were obtained after 10 rounds of extrusion through 200 nm membrane filters (Whatman Nuclepore, Track-Etch Membranes). The liposomes were dialysed to citrate phosphate buffer (100 mM NaCl, 50 mM citric acid, 100 mM Na2HPO4, pH ~6). Anionic LUVs were prepared by mixing 25% (mol/mol) DOPG and 75% (mol/mol) DOPC and then incorporating 2% (mol/mol) Lys-Lipid II. All other steps were the same as for zwitterionic LUVs.
ITC was performed with the Low Volume NanoITC (Waters LLC, New Castle, DE, USA) to determine interaction between LUVs and [R4L10]-teixobactin. [R4L10]-teixobactin was diluted in a citrate phosphate buffer (100 mM NaCl, 50 mM citric acid, 100 mM Na2HPO4, pH ~6) to a final concentration of 65 μM. Samples were degassed before use. The chamber was filled with 164 μL of [R4L10]-teixobactin, and the LUVs were titrated into the chamber at a rate of 1.96 μL/300 s with a stirring rate of 300 rpm. Experiments were performed at 37 °C and analysed using the Nano Analyse Software (Waters LLC). […]
Background: ITC needs no label: the signal is the heat of the interaction.

Where [7] appears, read: bound to mDAP-Lipid II in DOPC (DAP-LII_PC).
The mark [8] stands for this setting: bound to mDAP-Lipid II in DOPG (DAP-LII_PG).

A word on the Kd: it is the free concentration of one partner at which half of the binding sites on the other are occupied at equilibrium, for simple one-to-one binding.

For the substance “D-Arg4-Leu10-teixobactin ([dNMeF]IS[dR][d(aIle)]IS[dT]ALI; ester 8-C; also: 13C,15N labels at Ile2, Ser3, Ile6, Ser7 and one Ala (residue not fully stated)) [[R4L10]-teixobactin, teixobactin analogue in which D-Gln4 and L-allo-enduracididine10 are replaced by D-Arg4 and L-Leu10]”, the “Bulk 15N R1rho” value in test [1] (setting [7]) was 22.15 s⁻¹; in test [1] (setting [8]), 36.17 s⁻¹. In addition, the “Bulk 15N T1rho” value in test [1] (setting [7]) amounted to 45.14 ms; in test [1] (setting [8]) it was 27.65 ms. In addition, in test [2], the “membrane localization of Lipid II-bound peptide” value is “localizes at the water–membrane interface with the non-polar residues Ile2 and Ile6 partitioned in the bilayer”. Moreover, the “coordination of Lipid II pyrophosphate” value in test [3] is reported as “directly coordinate the pyrophosphate”. In addition, in test [4], the “ssNMR spectra bound to Lys-Lipid II vs mDAP-Lipid II” value is listed as “gave the same ssNMR spectra”. Also, the “binding to Lys-Lipid I” value in test [5] is on record as “also able to bind Lys-Lipid I”. The Kd in test [6] worked out at 170 nM.
